From patent publication US9980943B2, “Methods of treating muscular dystrophy” (BOARD OF REGENTS OF THE NEVADA SYSTEM OF HIGHER EDUCATION, …, priority 2013, dated 2018)

Columns and labels:
Assay type in all cases: cell-based, mouse
[1] = system: α7 integrin (LacZ reporter in α7βgal+/− myoblasts); assay: Myoblast α7+/LacZ integrin FDG assay (Burkin assay in myoblasts, 96-well); conditions: α7+/LacZ myoblasts, 96-well
[2] = system: α7 integrin (LacZ reporter in α7+/LacZ myotubes); assay: Myotube α7 integrin FDG assay (Burkin assay in myotubes, 96-well); conditions: myotubes
[3] = system: β-galactosidase in CMV-LacZ C2C12 myoblasts; assay: CMV-LacZ secondary screen in C2C12 myoblasts (β-Gal stabilizing assay); conditions: CMV-LacZ C2C12 myoblasts
Outline: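 β-gal stabilization was measured in C2C12 myoblasts or myotubes stably transfected with a CMV-driven LacZ construct, using the FDG β-gal assay. Compounds were tested in dose-response at 0.5, 1, 5, 10, 20 and 40 μM, with two replicates per point.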

[4] = system: β-galactosidase in CMV-LacZ C2C12 myotubes; assay: CMV-LacZ secondary screen in C2C12 myotubes (β-Gal stabilizing assay); conditions: C2C12 CMV-LacZ myotubes, fold relative to DMSO
Outline: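 First, C2C12 myoblasts were transfected with a linearized CMV-LACZ vector and clonal lines selected by FDG β-gal assay. Then cells were exposed to compounds at 0.5, 1, 5, 10, 20 and 40 μM in 96-well format, two replicates each, and β-gal measured.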

Structure (SMILES) | Burkin Assay in Myoblasts, signal relative to DMSO ([1]; 0.5 uM) | Burkin Assay in Myoblasts, signal relative to DMSO ([1]; 1 uM) | Burkin Assay in Myoblasts, signal relative to DMSO ([1]; 5 uM) | Burkin Assay in Myoblasts, signal relative to DMSO ([1]; 10 uM) | Burkin Assay in Myoblasts, signal relative to DMSO ([1]; 20 uM) | Burkin Assay in Myoblasts, signal relative to DMSO ([1]; 40 uM) | Burkin Assay in Myotubes, α7 integrin LacZ reporter signal relative to DMSO ([2]; 0.5 uM) | Burkin Assay in Myotubes, α7 integrin LacZ reporter signal relative to DMSO ([2]; 1 uM) | Burkin Assay in Myotubes, α7 integrin LacZ reporter signal relative to DMSO ([2]; 5 uM) | Burkin Assay in Myotubes, α7 integrin LacZ reporter signal relative to DMSO ([2]; 10 uM) | Burkin Assay in Myotubes, α7 integrin LacZ reporter signal relative to DMSO ([2]; 20 uM) | Burkin Assay in Myotubes, α7 integrin LacZ reporter signal relative to DMSO ([2]; 40 uM) | CMV-LACZ in Myoblasts (β-galactosidase activity relative to DMSO) ([3]; 0.5 uM) | CMV-LACZ in Myoblasts (β-galactosidase activity relative to DMSO) ([3]; 1 uM) | CMV-LACZ in Myoblasts (β-galactosidase activity relative to DMSO) ([3]; 5 uM) | CMV-LACZ in Myoblasts (β-galactosidase activity relative to DMSO) ([3]; 10 uM) | CMV-LACZ in Myoblasts (β-galactosidase activity relative to DMSO) ([3]; 20 uM) | CMV-LACZ in Myoblasts (β-galactosidase activity relative to DMSO) ([3]; 40 uM) | CMV-LACZ in Myotubes, signal relative to DMSO ([4]; 0.5 uM) | CMV-LACZ in Myotubes, signal relative to DMSO ([4]; 1 uM) | other results
O=C(Nc1ccccc1OC(=O)c1ccc(Cl)cc1)c1ccc(Cl)cc1 [MLS000573208-01] | 1.031 | 1.015 | 0.9523 | 0.8121 | 1.632 | 0.6235 | 0.9453 | 1.007 | 0.98 | 1.045 | 0.8239 | 0.5966 | 1.0197 | 0.9594 | 1.1030 | 0.8678 | 0.6626 | 0.9289 | 0.9547 | 1.3021 | CMV-LACZ in Myotubes, signal relative to DMSO ([4]; 5 uM): 1.1765; CMV-LACZ in Myotubes, signal relative to DMSO ([4]; 10 uM): 0.8913; CMV-LACZ in Myotubes, signal relative to DMSO ([4]; 20 uM): 0.9633; CMV-LACZ in Myotubes, signal relative to DMSO ([4]; 40 uM): 0.9478
COc1cc([N+](=O)[O-])cc(/C=N/NC(=O)C(O)(c2ccccc2)c2ccccc2)c1O [MLS001183575-01] | 0.9644 | 1.009 | 0.8981 | 0.7946 | 0.6916 | 0.5338 | 1.0887 | 0.9681 | 0.8172 | 0.7938 | 0.7378 | 0.6868 | 1.1603 | 1.2440 | 0.8972 | 0.7762 | 1.2825 | 0.8856 | 0.9648 | 0.8657 | CMV-LACZ in Myotubes, signal relative to DMSO ([4]; 5 uM): 0.7726; CMV-LACZ in Myotubes, signal relative to DMSO ([4]; 10 uM): 0.9136; CMV-LACZ in Myotubes, signal relative to DMSO ([4]; 20 uM): 0.8230; CMV-LACZ in Myotubes, signal relative to DMSO ([4]; 40 uM): 1.1230
